Series [1] relates to Hamster. As to the kind of experiment: Effect on total cholesterol level in high-fat-and-cholesterol diet fed Male Bio F1B hamster plasma at 10 mg/kg, po relative to control. Type of series: functional, Cricetinae.
Series [2] relates to Hamster. As to the kind of experiment: Effect on Plasma triglyceride level in high-fat-and-cholesterol diet fed Male Bio F1B hamster at 3 to 10 mg/kg, po relative to control. Type of series: organism-based. Further details: dose 3-10 mg/kg, route oral. Particulars: cricetinae, in vivo.
Series [3] concerns Hamster. As to the kind of experiment: Effect on area of lipid accumulation in high-fat-and-cholesterol diet fed Male Bio F1B hamster aortic arch at 3 mg/kg, po relative to control. In kind it is functional, Cricetinae.
Series [4] relates to Hamster. As to the kind of experiment: Effect on Plasma triglyceride level in high-fat-and-cholesterol diet fed Male Bio F1B hamster at 3 mg/kg, po relative to control. Particulars: cricetinae, in vivo. Type of series: organism-based. Also on record: dose 3 mg/kg, route oral.
The test system of series [5] is Hamster. The series is described as follows: Effect on total cholesterol level in high-fat-and-cholesterol diet fed Male Bio F1B hamster plasma at 3 mg/kg, po relative to control. In kind it is functional, Cricetinae.
For series [6], the system named is Hamster. The series is described as follows: Effect on HDL-C level in high-fat-and-cholesterol diet fed Male Bio F1B hamster plasma at 3 mg/kg, po relative to control. Type of series: functional, Cricetinae.
The test system of series [7] is Hamster. The series is described as follows: Effect on area of lipid accumulation in high-fat-and-cholesterol diet fed Male Bio F1B hamster aortic arch at 10 mg/kg, po relative to control. Type of series: functional, Cricetinae.
Series [8] concerns Hamster. The series is described as follows: Effect on HDL-C level in high-fat-and-cholesterol diet fed Male Bio F1B hamster plasma at 10 mg/kg, po relative to control. Type of series: functional, Cricetinae.
In series [9] the test system is Hamster. As to the kind of experiment: Effect on HDL-C level in high-fat-and-cholesterol diet fed Male Bio F1B hamster plasma at 3 to 10 mg/kg, po relative to control. In kind it is functional, Cricetinae. Particulars: dose mg/kg 3-10.
Series [10] deals with Hamster. As to the kind of experiment: Effect on Plasma triglyceride level in high-fat-and-cholesterol diet fed Male Bio F1B hamster at 10 mg/kg, po relative to control. Type of series: organism-based. Further details: dose 10 mg/kg, route oral. Conditions: cricetinae, in vivo.

As for `O=S(=O)(c1ccccc1)N(CC(F)(F)F)c1ccc(C(O)(C(F)(F)F)C(F)(F)F)cc1` [T091317], the Activity is 127% in series [1]; 50% in [2]; 53% in [3]; 206% in [4]; 123% in series [5]; 67% in [6]. For the same compound, the Activity is given as 52% in [7], 59% in [8] and 243% in [10]. Also, the “fold change (FC)” value in series [9] is listed as 3.

The values above are taken from ChEMBL document CHEMBL3399967, “Design and discovery of 2-oxochromene derivatives as liver X receptor β-selective agonists” (Bioorg Med Chem Lett, 2015).
